Results taken from patent publication US20240026301A1, “METHODS AND COMPOSITIONS FOR GENERATING ENDOTHELIAL CELLS FROM PLURIPOTENT STEM CELLS” (Trailhead Biosystems Inc., priority 2022, published 2024).
“Also recorded” adds a separate entry of the source.

How the values were obtained:
pluripotent stem cells = conditions: DMEM base media with ascorbic acid; GSK-inhibitor treatment; cited from earlier work
PECAM1 (CD31) = assay: 8-factor HD-DoE experiments (qPCR, partial least squares models) optimized for maximum expression of PECAM1 (CD31), stage 2 differentiation; assay type: cell-based, human
Experimental: First, undifferentiated iPSC were grown for 48 h in CDM2 media containing 6 uM CHIR99021 (referred to herein as stage 1). Then stage 2 media was engineered. The basis of this was an 8-factor HD-DoE experiment with focus on differentiation of cells toward the endothelial lineage for an additional 3 days after termination of stage 1 treatment. To test the effectors, 48 different combinations of effectors generated using Design-of-Experiments compression through D-optimality were robotically prepared. The effector combinations were prepared in a basal media and were subsequently added to the cells, which were then allowed to differentiate. Three days later, RNA extraction was performed, and gene expression was obtained using quantitative PCR analysis. The data were normalized and modeled using partial least squares regression analysis to the effector design, resulting in the generation of gene-specific models, which after model tuning for maximal Q2 predictive power, provided explanation of the effectors ability to control the expression of individual genes, combinatorically, and individually. Solutions within the tested space could then be explored to address desirability. Optimizing for maximal expression of CD31 led to a robust solution. […] On this model, we observed high levels of KDR, important receptor for VEGF signaling.
This model was derived from initial testing of eight factors including: VEGF, FGF2, TTNBP, AGN194310, Y27632, Thymosin B4 and Heparin.
Next, we evaluated further factors to possibly increase the complexity of the signaling inputs to attain effective fate control. As previously, we focused on expression of CD31. Optimizing for maximal expression of the CD31 led to a robust solution. […] This model was derived from initial testing of eight factors including: YHHU-3792, DBZ, Pumorphamine, SANT1, LPA, YODA1, VEGF and B27. […] DBZ and LPA had low contributions factors and therefore were not used in the recipe.
To further improve the recipe for endothelial cell differentiation, we performed additional HD-DoE experiments. This model was derived from initial testing of eight factors including: VEGF, FGF2, Sphingosine 1 phosphate, VH298, Pyrintegrin, Erythropoetin, L-ascorbic acid and XAV939. […] On this model, we observed high levels of KDR, important receptor for VEGF signaling. […] Considering all the models analyzed, based on predicted conditions that maximize expression of endothelial enriched genes such as ERG, CDH5, CD31, FLI1, CD34, a complex recipe for endothelial differentiation was developed that is composed of 6 effectors, as shown below in Table 2: […]

CD31 [1] = assay: Factor criticality analysis (dynamic profile analysis), CD31 expression level; assay type: cell-based, human; set-up: values of CD31, effector removed / CD31 levels, effector removed / CD31 levels before addition of the SHH agonist / CD31 levels after addition of the SHH agonist: unit not given here; conditions: for values of CD31, effector present / values of CD31, effector removed: FIG. 6 model; for values of CD31, effector present: all factors present
CDH5 [2] = assay: Factor criticality analysis (dynamic profile analysis), CDH5 expression level; assay type: cell-based, human
[3] = test system: PECAM1, CD34, CDH5 and FLI1; assay: Dynamic profile analysis of expression levels relative to effector concentration (figure legends); assay type: cell-based, human; conditions: for impact on expression of PECAM1, CD34, CDH5 and FLI1: FIG. 5A-5B, slope of plots relative to effector concentration
Description: FIG. 5A-5B show the dynamic profile analysis of expression levels of PECAM1, CD34, CDH5 and FLI1 relative to the concentration of 3 validated effectors.
FIG. 6A-6B show the dynamic profile analysis of expression levels of PECAM1, CD34, CDH5 and Fli1 relative to the concentration of 3 validated effectors.
(§1) To assess the impact of elimination of each validated factor on genes associated with the endothelial lineage, dynamic profile analysis was used and the expression levels of genes of interest were compared in the absence of each finalized factor while others are kept present.

CD31 [4] = assay: Factor criticality analysis (dynamic profile analysis), CD31 expression level; assay type: cell-based, human; set-up: values of CD31, effector removed: unit not given here; conditions: FIG. 5 model; for values of CD31, effector present: all finalized factors present; for values of CD31, effector removed: named effector removed, other factors kept
Experimental: (§2) First, undifferentiated iPSC were grown for 48 h in CDM2 media containing 6 uM CHIR99021 (referred to herein as stage 1). Then stage 2 media was engineered. The basis of this was an 8-factor HD-DoE experiment with focus on differentiation of cells toward the endothelial lineage for an additional 3 days after termination of stage 1 treatment. To test the effectors, 48 different combinations of effectors generated using Design-of-Experiments compression through D-optimality were robotically prepared. The effector combinations were prepared in a basal media and were subsequently added to the cells, which were then allowed to differentiate. Three days later, RNA extraction was performed, and gene expression was obtained using quantitative PCR analysis. The data were normalized and modeled using partial least squares regression analysis to the effector design, resulting in the generation of gene-specific models, which after model tuning for maximal Q2 predictive power, provided explanation of the effectors ability to control the expression of individual genes, combinatorically, and individually. Solutions within the tested space could then be explored to address desirability.
as §1
(§3) In this analysis, removal of a finalized effector while keeping other factors was used to analyze the impact of factors on the expression levels of CD31, CD34, FLi1 and CDH5 (FIG. 5A).

CDH5 [5] = assay: Factor criticality analysis (dynamic profile analysis), CDH5 expression level; assay type: cell-based, human; conditions: FIG. 5 model; for values of CDH5, effector present: all finalized factors present; for values of CDH5, effector removed: named effector removed, other factors kept
Experimental: as §2, §1, §3

FLI1 = assay: Factor criticality analysis (dynamic profile analysis), FLI1 expression level; assay type: cell-based, human; conditions: for values of FLI1, effector present: all finalized factors present; for values of Fli1, effector present / values of Fli1, effector removed: FIG. 6 model; for values of Fli1, effector present: all factors present
Experimental: as §2, §1, §3

CD34 = assay: Factor criticality analysis (dynamic profile analysis), CD34 expression level; assay type: cell-based, human; conditions: for values of CD34, effector present / values of CD34, effector removed: FIG. 5 model; for values of CD34, effector present: all finalized factors present; for values of CD34, effector removed / CD34 levels, effector removed: named effector removed; for values of CD34, effector removed: other factors kept
Experimental: as §2, §1, §3

[6] = model of FIG. 3, factors YHHU-3792, DBZ, Pumorphamine, SANT1, LPA, YODA1, VEGF, B27
[7] = FIG. 7 model, L-ascorbic acid kept in the model
[8] = FIG. 7 model, named effector removed, L-ascorbic acid kept
[9] = model of FIG. 2, factors VEGF, FGF2, TTNBP, AGN194310, Y27632, Thymosin B4, Heparin, 3 days after stage 1
[10] = model of FIG. 4, factors VEGF, FGF2, Sphingosine 1 phosphate, VH298, Pyrintegrin, Erythropoetin, L-ascorbic acid, XAV939
[11] = FIG. 6 model, all factors present

## Cc1c[nH]c(-c2cnc(NCCNc3ccc(C#N)cn3)nc2-c2ccc(Cl)cc2Cl)n1 [CHIR99012]
Pluripotent stem cells
  yield of CD34+CD31+ cells prior to sorting: 20-30%

## C[C@H](NC(=O)Cc1cc(F)cc(F)c1)C(=O)N[C@@H]1C(=O)N(C)c2ccccc2-c2ccccc21 [DBZ]
PECAM1 (CD31); [6]
  factor contribution (positive impact on expression of genes of interest): low

## c1ccc2c(Oc3nc(Nc4ccc(N5CCOCC5)cc4)c4ncn(C5CCCCC5)c4n3)cccc2c1 [Pumorphamine]
CD31 [1]; FIG. 7 model, agent added
  CD31 levels after addition of the SHH agonist: 400
CD31 [1]; FIG. 7 model, without the added agent
  CD31 levels before addition of the SHH agonist: 800

## Cc1nn(-c2ccccc2)c(C)c1/C=N/N1CCN(Cc2ccccc2)CC1 [SANT1]
CD31 [1]; [7]
  CD31 levels, effector present: 808
CD31 [1]; [8]
  CD31 levels, effector removed: 563
PECAM1 (CD31); [6]
  factor contribution (positive impact on expression of genes of interest): 16
CDH5 [2]; [7]
  CDH5 levels, effector present: 2928
CDH5 [2]; [8]
  CDH5 levels, effector removed: 2340
[3]; FIG. 7A-7B model
  impact on PECAM1 and CDH5 expression: positive impact

## C/C(=C\c1ccc(C(=O)O)cc1)c1ccc2c(c1)C(C)(C)CCC2(C)C [TTNBP]
CD31 [4]
  values of CD31, effector present: 2000
  values of CD31, effector removed: 1077
CDH5 [5]
  values of CDH5, effector present: 10000
  values of CDH5, effector removed: 2600
FLI1; FIG. 5 model
  values of FLI1, effector present: 2883
PECAM1 (CD31); [9]
  factor contribution (positive impact on expression of genes of interest): 21
CD34
  values of CD34, effector present: 6500
  values of CD34, effector removed: 4300
[3]
  impact on expression of PECAM1, CD34, CDH5 and FLI1: positive impact

## Oc1nc(-c2ccc(C(F)(F)F)cc2)nc2c1CSCC2 [XAV939]
CD31 [1]
  values of CD31, effector present: 6500
CD31 [1]; named effector removed
  values of CD31, effector removed: 2225
FLI1
  values of Fli1, effector present: 13400
FLI1; named effector removed
  values of Fli1, effector removed: 7300
PECAM1 (CD31); [10]
  factor contribution (positive impact on expression of genes of interest): 15
CD34; [11]
  CD34 levels, effector present: 7180
CD34; FIG. 6 model
  CD34 levels, effector removed: 5836
[3]; FIG. 6A-6B model
  impact on PECAM1 and Fli1 expression: positive impact

## FGF2: FGFR agonist, e.g. recombinant human FGF2
CD31 [1]
  values of CD31, effector present: 6500
CD31 [1]; named effector removed
  values of CD31, effector removed: 1990
FLI1
  values of Fli1, effector present: 1300
FLI1; named effector removed
  values of Fli1, effector removed: 500
PECAM1 (CD31); [9]
  factor contribution (positive impact on expression of genes of interest): did not significantly impact the expression of CD31
PECAM1 (CD31); [10]
  factor contribution (positive impact on expression of genes of interest): 16
CD34; FIG. 6 model
  CD34 levels, effector removed: did not change significantly
CDH5 [2]; [11]
  values of CDH5, effector present: 19000
CDH5 [2]; FIG. 6 model, named effector removed
  values of CDH5, effector removed: 5000
[3]; FIG. 6A-6B model
  impact on PECAM1, FLI1, and CDH5 expression: positive impact

## VEGF
CD31 [4]
  values of CD31, effector present: 2000
  values of CD31, effector removed: 340
CDH5 [5]
  values of CDH5, effector present: 10000
  values of CDH5, effector removed: 0
FLI1; FIG. 5 model
  values of FLI1, effector present: 4900
FLI1; FIG. 5 model, named effector removed, other factors kept
  values of FLI1, effector removed: 1035
PECAM1 (CD31); [9]
  factor contribution (positive impact on expression of genes of interest): 39
PECAM1 (CD31); [6]
  factor contribution (positive impact on expression of genes of interest): 32
PECAM1 (CD31); [10]
  factor contribution (positive impact on expression of genes of interest): 42
CD34
  values of CD34, effector present: 6500
  values of CD34, effector removed: 1000
[3]
  impact on expression of PECAM1, CD34, CDH5 and FLI1: positive impact
[3]; FIG. 6A-6B model
  impact on expression of all genes (PECAM1, CD34, CDH5 and Fli1): positive impact; also recorded: critical
[3]; FIG. 7A-7B model
  impact on expression of all genes (PECAM1, CD34, CDH5 and Fli1): positive impact

## heparin
CD31 [4]
  values of CD31, effector present: 2000
  values of CD31, effector removed: 1500
CDH5 [5]
  values of CDH5, effector present: 10000
  values of CDH5, effector removed: 5800
FLI1; FIG. 5 model
  values of FLI1, effector present: 2883
PECAM1 (CD31); [9]
  factor contribution (positive impact on expression of genes of interest): 11
CD34
  values of CD34, effector present: 6500
  values of CD34, effector removed: 4800
[3]
  impact on expression of PECAM1, CD34, CDH5 and FLI1: positive impact
